# Data published in patent US6399622B1, “Method for diagnosing and alleviating the symptoms of chronic fatigue syndrome” (priority 1997, dated 2002).
# Read-outs that look alike come from different tables or passages of the source.
# Experiments:
# [1] = in vivo, po, 1000 mg; cited from earlier work
# [2] = test system: human cytomegalovirus (nonstructural gene products p52 and CM2); assay: Example 4: Copalis antibody titers and fatigue after ganciclovir in HCMV CFS patients; format: in vivo
# Source text: This Copalis® method to CM2 and p52 measures IgM antibodies to HCMV non-structural gene products. The non-structural gene products are UL44, UL57. These gene products have been produced in E-coli. The UL44 and UL57 refer to the open reading frames (ORF) of the human cytomegalovirus genome. The UL44 has the function of a polymerase processivity factor known as p52. The UL57 is the second gene product which may be measured by the Copalis® method and its function is as a single-stranded (ss) DNA binding protein CM2. These are nonstructural gene products which are extruded from a cell with incomplete human cytomegalovirus multiplication. The Copalis® method measures antibodies to these two gene products with the purified antigens produced in E-coli.
# The Copalis® CMV Mutliplex assay is a homogenous test for the simultaneous determination of acute infection stages or immune status to Cytomegalovirus using coupled particle light scattering. Sized microparticles, coated with one of three antigens (p52, CM2, and CMV viral particle (VP)) are dried in the reaction cup. Early phase IgM antibodies are detected by both the CM2 and the p52 antigens. Antibody response to the CM2 antigen but not to the p52 antigen continues through the convalescent stage of acute infection. Antibodies to the VP may appear during acute infection but shall persist during life. Reactivity just (sucrose-density purified tissue culture produced complete HCMV cytomegalovirus) to the VP is characteristic of prior infection (indicative of immune status). Antibody detection, made by the Copalis® Immunoassay System, is reported qualitatively for the IgM analytes and semi-quantitatively for the total analyte.
# The Copalis® CMVplex Antibody Assay is based on the principle of antibody dependent particle aggregation as measured by the amount of light scattered. A typical antibody reactivity pattern (IgM and/or IgG) in the patient sample allows diagnosis of the infection as seronegative, acute or past infections. The CMVplex Test Cup has polystyrene microparticles of three sizes each coated with different specific antigens dried in the bottom. The Test Cup is reconstituted with reaction buffer by the instrument. The sample is then transferred into the reaction well and the mixture is agitated for 10 minutes. Upon completion of the agitation, the reaction mixture is transferred to the optical system for analysis.
# The level of aggregation is determined by discrimination of particle sizes and unreacted particles (monomers) as detected by the optical system. The quantity of assay particles remaining as monomers is compared to that of an unreacted baseline negative calibrator. A ratio is established between the counts of the two monomer particles. This ratio is reported as the Copalis® Test Result (CTR). The CTR is then converted into a numerical unit, Copalis® Index (CI), which determines the cutoff thresholds for each marker. Interpretation of results is based upon the CI. Results for the IgG marker (VP) are reported semi-quantitatively and qualitatively for the IgM markers (p52 and CM2).
# Results of Copalis® antibody testing in patients with the U.S. CDC-Chronic Fatigue Syndrome and various other patients with severe onset of […] fatigue. Group 1) Eight patients were studied with the chronic fatigue syndrome. They are six women and […] with ages ranging from 32 through 48. They had IgG antibodies to human cytomegalovirus. […] They would be evaluated as having past infection. […]
# HCMV = format: in vivo, human; conditions: for mean energy index: six months later
# Method: HCMV-Isolated CFS Patients-Test of Antiviral Treatment. A study was conducted to assess the possible efficacy of ganciclovir treatment on a subset of CFS patients with (1) high HCMV IgG ELISA antibody titers; (2) minimal/no serologic evidence of concurrent EBV multiplication; and (3) oscillating ECG abnormalities at Holter monitoring. Patients. From March, 1993, through June, 1994, 3 men and 15 women with the mean age of 39.7 plus or minus 7.7 years, with CFS (as defined by the USA, Centers for Diseases Control criteria), were recruited from a single infectious diseases referral center in Birmingham, Mich. Approximately 50 patients with chronic fatigue syndrome were screened for inclusion in this study. […] In these 18 CFS patients, baseline standard 12 lead ECG, 2-D echocardiogram, rest-stress myocardial perfusion (thallium 201 or Tc-99 cardiolite) and rest-stress multiple […] acquisitions (MUGA) studies as well as coronary angiography excluded coronary artery disease. HCMV ELISA and HCMV ELISA IgG titers, as well as EBV capsid antigen (VCA), ELISA IgM and EBV total early antigens (EA) immunofluorescent antibody titers were assayed. Additionally, buffy coats, urine and myocardial biopsies were tested for infectious HCMV. […] Holter monitoring, MUGA studies and endomyocardial biopsies in these patients were done. Holter monitors, MUGA studies and endomyocardial biopsies were read blindly without knowledge of the patient. Also readings were repeated by at least one, and often several, other physician readers. A patient's 24-hour Holter monitor was considered positive if T-waves became intermittently inverted or flat. Labile T-wave abnormalities at Holter monitoring were present in each CFS patient. In addition to the Holter monitoring, at each outpatient visit, a subjective evaluation of the patient's functional status was recorded using the energy index (EI) as previously described. Infusions of Ganciclovir. After placement of a peripherally inserted central catheter (PICC) or a groshong catheter, ganciclovir was given intravenously in a dose of 5 mg. per kg. at 12-hour intervals for 30 days. Patients were seen once a week by the same physician and complete blood counts, SMA values and urinalysis were conducted. […] They were advised to avoid exercise, fatigue and alcohol and engage in regular sleeping patterns. Statistical Methods. Eighteen patients, 3 men and 15 women, all with CFS, with a mean age of 39.7 ranging from 29 to 51 years, were evaluated. Statistical significance between patients meeting the criteria for the HCMV subset and other patients with CFS were evaluated using tests of homogeneity of chi-square analysis and the two-tailed Fisher's exact test for bivariate analysis of dichotomous data.
# herpes viruses = conditions: cited from earlier work
# [3] = test system: Epstein-Barr virus persistent infection; assay: Example 2: valacyclovir treatment of EBV-isolated CFS patients; format: in vivo, human
# Source text: EBV-Isolated CFS Patients—Test of Antiviral Treatment. […] EBV active infection was documented by EBV VCA IgM antibodies and/or EBV EA elevated antibody titers. All of these patients had their energy levels reduced by 50% or more and were partially or entirely non-functional, unable to work or maintain a household. These ten patients had no diseases or complicating conditions which could have accounted for their chronic fatigue syndrome symptoms and they had no prior psychiatric diseases.
# Each patient's functional status was recorded as a statistically validated energy index (EI). At each out-patient visit, subjective evaluation of the patient's functional status was recorded using this energy index. The energy index records the average subjective vitality of the patient in the immediate 14 days prior to this specific out-patient visit. When minor illnesses such as the common cold complicated a visit, evaluation of the EI for a patient was delayed until the intercurrent problem receded.
# Prior to the initiation of the antiviral treatment and following approximately six months of treatment, objective evaluations of the ability to work and the energy index of each of the ten patients was analyzed.
# Pursuant to the energy index, a patient with a 0 energy index (EI) is bedridden. With an energy index of 1 or 2, any activity by the patient leads to overwhelming, incapacitating fatigue. Such patients are generally light-headed, unable to think clearly, and concentration is difficult for any extended period of time (over 60 minutes). Left-sided chest aches, palpitations, sore throats and feverishness are frequent. These patients may be out of bed for intermittent, brief periods of the day.
# Patients with an energy index between 3 and 5 can, with great effort, be out of bed for several hours each day doing non-physical activities. […] These patients express variable light-headedness, inability to think clearly or read normally. Left-sided chest aches, palpitations, sore throats and feverishness occur often. Patients within this energy range cannot perform a 40 hour sedentary job or maintain the duties of a homemaker including such activities as cooking and cleaning. In general, CFS patients have an energy index of 5 or less.
# Patients with an energy index between 6 and 9 can assume normal activities and maintain a 40 hour work week and, with pacing, maintain a household. […] These patients can do light physical work or exercise in moderation without fatigue.
# Patients with an energy index of 10 have normal energy levels, stamina and a sense of well-being. Light-headedness, difficulties in concentrating and reading ability and chest aches, palpitations, sore throats and feverishness are absent.
# During the initial and final clinical visits, each CFS patient was studied to determine the IgM antibodies to the EBV viral capsid antigen (VCA), total early antigens (EA), and enzyme immunoassays (ELISA) to HCMV IgM and HCMV ELISA IgG titers. An IgM EBV VCA antibody titer indicates infectious lytic EBV multiplication within the most recent 3 month period. During the EBV infectious lytic cycle, antigen is expressed which can be divided into a diffuse (EAD) complex and a cytoplasmic restricted EAR complex (EAR). As a result, each patient's EAD was assayed. The presence of EBV EA antibody indicates current EBV multiplication. Likewise, an elevated […] IgM antibody indicates recent EBV or HCMV multiplication, respectively. The EBV VCA antibody IgM titers were done by the ELISA method. As a control group, similar serum antibody titers were measured in 20 non-CFS individuals. In the non-CFS control group, the mean HCMV IgG titer was 240.
# Dosage. Each of the patients was administered an oral dose of valacyclovir at 10 mg/kg by mouth every six hours.
# Demographics. There were nine women and one person. Their ages ranged from 20-67 years. Their mean age was 43.3 years. […]
# [4] = eight CFS patients, intravenous followed by oral ganciclovir
structure (smiles),measurement,setting,value
"Nc1nc2c(ncn2COC(CO)CO)c(=O)[nH]1 [ganciclovir, 9-(1,3-dihydroxy-2-propoxymethyl) guanine]",bioavailability (of ganciclovir),[1],5.6%
same,antibodies to nonstructural gene products p52 and CM2 (Copalis),[2]; [4],became markedly lower and disappeared
same,fatigue,[2]; [4],remarkably lessened
same,clinical outcome,"[2]; person positive only by p52, intravenous followed by oral ganciclovir",improved remarkably
same,cardiac function,"[2]; person with congestive heart failure and diabetes mellitus, intravenous",improved
same,CM2 antibodies (Copalis),"[2]; two CFS patients with high CM2, no elevated p52, intravenous followed by oral ganciclovir",lessened or disappeared
same,mean energy index,"HCMV; Group A (13 improved patients), start mean 3",7
same,"patients with improved MUGA test results (lesser tardokinesis, hypokinesis or left ventricular dilatation)","HCMV; Group A, after treatment",3 patients
same,patients with previously abnormal myocardial dynamics reverted to normal (MUGA),"HCMV; Group A, after treatment",3 patients
same,patients who resumed normal pre-CFS activity levels,HCMV; Group B,none
same,mean energy index,"HCMV; Group B (5 not improved patients), start mean 2",4
same,fatigue,HCMV; case study,disappeared
same,maximal cardiac ejection fraction,"HCMV; case study, a further five months later, from 54%",68%
same,resting ejection fraction (stress MUGA),"HCMV; case study, five months after 30 days i.v. treatment, before 40%",54%
same,increase of resting ejection fraction,"HCMV; case study, from 40% to 54%",14%
same,serum creatinine,"HCMV; human, in vivo",transient increase in serum creatinine
same,adverse events,"HCMV; human, in vivo, iv",no adverse events or symptoms attributable to ganciclovir
same,patients improved,"HCMV; of 18 CFS patients, 5 mg per kg i.v. at 12-hour intervals for 30 days",13 patients
same,MUGA study at follow up,"HCMV; one Group B patient with initial normal MUGA, 6 months after treatment",showed septal hypokinesis
same,clinical response,"HCMV; small preliminary subset of CFS patients with HCMV infection, no concurrent EBV multiplication",salutary response
same,activity level after antiviral treatment,HCMV; the 13 patients in Group A,resumed their normal pre-CFS activity levels
"O=C(O)P(=O)(O)O [Foscarnet sodium, trisodium phosphonoformate]",activity against herpes viruses,herpes viruses; in vitro and in vivo,potent in vitro and in vivo activity
O=c1[nH]c(=O)n([C@@H]2O[C@H](CO)[C@@H](O)[C@@H]2O)cc1/C=C/Br [bromovinyl arabinosyl uracil],inhibition of herpes viruses,"herpes viruses; herpes simplex virus Type 1, Epstein-Barr virus and VZV",significant inhibition
CC(C)[C@H](N)C(=O)OCCOCn1cnc2c(=O)[nH]c(N)nc21 [valacyclovir],mean energy index (EI) at completion of therapy,"[3]; 10 EBV CFS patients, 10 mg/kg by mouth every six hours, about six months, pre-therapy mean EI 4.7",7.5
same,median energy index (EI) at completion of therapy,"[3]; 10 EBV CFS patients, about six months of treatment",7
same,range of energy index (EI) at completion of therapy,"[3]; 10 EBV CFS patients, pre-therapy range 3.5 to 5.5",6-10
same,"patients with light-headedness, unsteadiness, inability to think well at completion of the trial",[3]; at beginning 9 out of 10,one of ten
same,patients with palpitations at completion of the trial,[3]; at beginning five out of ten,three out of ten
same,patients with positive EA antibody titers (≧10) at completion of the trial,[3]; at beginning seven out of ten,eight out of ten
same,patients with EBV VCA IgM positive titers at completion of the trial,[3]; before trial five out of ten,two out of ten
same,ability to work / activity level following treatment,"[3]; each of the ten patients, after approximately six months",able to fully engage in his/her activity level at work or home
same,patients with chest pain at completion of the trial,[3]; prior to therapy five out of ten,one out of ten
CC(C)[C@H](N)C(=O)OCC(CO)OCn1cnc2c(=O)nc(N)[nH]c21 (stereo partly drawn) [valganciclovir],bioavailability (of ganciclovir),[1],60.9%
